Reference: PMC7115586 (European Journal of Medicinal Chemistry, 2013)

Key:
[1] = test system: a wide variety of DNA and RNA viruses; test: All biological tests; assay type: cell-based; conditions: antiviral and cytostatic tests
[2] = Solubility in methanol or water; assay type: physicochemical; conditions: insufficient to measure the 13C NMR spectrum
[3] = test system: feline herpes virus (FHV); assay type: cell-based; conditions: CRFK, read-out: EC50 against feline herpes virus

Molecule	solubility in methanol or water [2]	also measured
3-(4-{[3-Benzoyl-2,4-dioxopyrimidin-1-yl]methyl}-1H-1,2,3-triazol-1-yl)propylphosphonic acid [Compound 31e]		activity in all biological tests [1]: inactive
4-(4-{[6-Aminopurin-9-yl]methyl}-1H-1,2,3-triazol-1-yl)butylphosphonic acid [Compound 32b]	insufficient	
CCOP(=O)(CCCn1cc(Cn2ccc(=O)n(C(=O)c3ccccc3)c2=O)nn1)OCC [Compound 22m, Diethyl 3-(4-{[3-benzoyl-2,4-dioxopyrimidin-1-yl]methyl}-1H-1,2,3-triazol-1-yl)propylphosphonate]		EC50 [3]: > 200 µM
Cn1c(=O)c2c(nc(Cl)n2Cc2cn(CCCP(=O)(O)O)nn2)n(C)c1=O [Compound 31g, 3-{4-[(8-Chloro-1,3-dimethyl-2,6-dioxopurin-7-yl)methyl]-1H-1,2,3-triazol-1-yl}propylphosphonic acid]	insufficient	
Cc1cc2ncn(Cc3cn(CCCP(=O)(O)O)nn3)c2cc1C [Compound 31j, 3-{4-[(5,6-Dimethyl-benzimidazol-1-yl)methyl]-1H-1,2,3-triazol-1-yl}propylphosphonic acid]		activity in all biological tests [1]: inactive
Nc1ncnc2c1ncn2Cc1cn(CCCCP(=O)(O)O)nn1 [Compound 32a, 4-(4-{[6-Aminopurin-9-yl]methyl}-1H-1,2,3-triazol-1-yl)butylphosphonic acid]	insufficient	
Cn1c(=O)c2c(ncn2Cc2cn(CC(O)P(=O)(O)O)nn2)n(C)c1=O (stereo not shown) [Compound 33i, 3-{4-[(1,3-Dimethyl-2,6-dioxopurin-7-yl)methyl]-1H-1,2,3-triazol-1-yl}-1-hydroxyethyphosphonic acid]	insufficient	
